Measured values: publication PMC10648204, “Discovery of Novel Biphenyl Carboxylic Acid Derivatives as Potent URAT1 Inhibitors” (Molecules, 2023)

How the values were obtained:
human URAT1 = target: T1, human URAT1 (Homo sapiens, UniProt Q96S37); test: In vitro URAT1 inhibitory assay (14C-uric acid uptake in HEK293T cells expressing human URAT1); format: cell-based; details: HEK293-URAT1 cells, 14C-labeled uric acid substrate; for inhibition at 10 µM: HEK-293T, 10 μM compound, mean of three measurements
T1 construct: expressed in transfected cells; host or cells: HEK293T cells (ATCC CRL-11268)
T1 sequence (Q96S37 1-553): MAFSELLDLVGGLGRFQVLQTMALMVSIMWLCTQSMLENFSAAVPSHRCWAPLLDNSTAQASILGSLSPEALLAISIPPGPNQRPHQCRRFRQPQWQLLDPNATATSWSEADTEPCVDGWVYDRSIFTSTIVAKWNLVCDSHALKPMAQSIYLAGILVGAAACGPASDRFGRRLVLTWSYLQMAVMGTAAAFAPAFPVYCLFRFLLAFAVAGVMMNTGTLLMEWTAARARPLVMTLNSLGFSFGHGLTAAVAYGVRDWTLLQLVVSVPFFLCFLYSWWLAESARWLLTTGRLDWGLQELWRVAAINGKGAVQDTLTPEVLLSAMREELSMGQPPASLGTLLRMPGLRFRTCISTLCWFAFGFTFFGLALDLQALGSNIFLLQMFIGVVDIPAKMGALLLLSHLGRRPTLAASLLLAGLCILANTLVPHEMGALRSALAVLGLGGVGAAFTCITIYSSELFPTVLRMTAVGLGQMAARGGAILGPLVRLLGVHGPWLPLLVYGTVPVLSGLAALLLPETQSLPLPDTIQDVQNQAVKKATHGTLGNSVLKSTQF
Procedure: All the target compounds were evaluated for their URAT1 inhibitory activities in HEK293-URAT1 cells using ^14C-labeled uric acid as the substrate. […] The SAR exploration on series A compounds mainly focused on the hydrophobic component. […] For series B compounds, the ortho-substituted biphenyl carboxylic acid was initially kept, and various aromatic components were incorporated (B1–B25). […] Different substituents were introduced onto the 4-pyridyl (B15–B21).
In Vitro URAT1 Inhibitory Assay. A transient expression system of human URAT1 in HEK293T cells was constructed to measure ^14C-uric acid transport. […] The cell cryovials were removed from liquid nitrogen storage, and immediately placed on dry ice prior to thawing. […] The cell suspension was transferred into a 15 mL centrifuge tube, and 10 mL complete medium (DMEM +10% FBS +500 μg/mL G418 +1% P/S) was added. After centrifugation at 1000 rpm for 5 min, the supernatant was discarded, and cell precipitation was resuspended in 5 mL complete medium and transferred to a T75 culture flask. […] The uptake assay test could be carried out after cell culture adherent to the well in the 96-well plate. Then, the cells were washed with 200 µL/well of pre-warmed Cl^- free HBSS buffer, and all buffer was removed at the last washing. 50 µL/well of Cl^- free HBSS Buffer containing Uric acid [8-^14C] (2.5 μCi/mL) and samples were added to the cells, and incubated for 8 min. Then, the cells were washed three times with Cl^- free HBSS Buffer and all buffer was removed at the last washing. 50 µL/well of lysis buffer (100 mM NaOH) was added to the lysate cells and stirred at 900 rpm for 5 min. 150 µL/well MicroScint™-40 cocktail was added and agitated at 900 rpm for 5 min. Finally, the 96-plate was counted in a MicroBeta2 (PerkinElmer). The data were analyzed and IC50 values was calculated with GraphPad Prism 6 software.

Structure (SMILES)	IC50 (human URAT1) [nM]	inhibition at 10 µM (human URAT1) [%]	melting point [°C]
O=C(O)c1ccccc1-c1ccccc1C(=O)N1CCCc2ccc(Br)cc21 [Compound A6]	1100	84	231 to 233
O=C(O)c1ccccc1-c1ccccc1-c1nc(-c2cnc3ccccc3c2)no1 [Compound B23]	6100	74	236 to 238
O=C(O)c1ccccc1-c1ccc(C(=O)N2CCCc3ccccc32)cc1 [Compound A20]	–	< 10	165 to 167
O=C(O)c1ccccc1-c1ccccc1C(=O)N1CCc2ccccc2C1 [Compound A15]	–	25	171 to 173
COc1ccc2c(c1)CCCN2C(=O)c1ccccc1-c1ccccc1C(=O)O [Compound A10]	1800	88	198 to 200
O=C(O)c1ccccc1-c1ccccc1C(=O)NCc1ccncc1 [Compound A17]	–	< 10	118 to 120
O=C(O)c1ccccc1-c1ccccc1-c1nc(-c2ccc(C(F)(F)F)cc2)no1 [Compound B2]	–	39	173 to 175
O=C(O)c1ccccc1-c1ccccc1-c1nc(-c2ccncn2)no1 [Compound B11]	–	30	167 to 169
O=C(O)c1ccccc1-c1ccccc1-c1nnc(-c2ccncc2)o1 [Compound B30]	–	33	237 to 239
O=C(O)c1ccccc1-c1ccccc1-c1nc(-c2cccs2)no1 [Compound B9]	–	68	140 to 142
O=C(O)c1ccccc1-c1ccccc1C(=O)N1CCCc2cc(Br)ccc21 [Compound A7]	1100	94	261 to 262
O=C(O)c1ccccc1-c1ccccc1C(=O)N1CCCc2ccc(-c3ccc(F)cc3)cc21 [Compound A12]	–	29	245 to 246
O=C(O)c1ccccc1-c1ccccc1-c1nc(-c2ccnc(F)c2)no1 [Compound B17]	980	90	98 to 100
O=C(O)c1ccccc1-c1ccccc1C(=O)N1CCSc2ccccc21 [Compound A3]	–	78	193 to 195
COc1cccc(-c2ccc3c(c2)N(C(=O)c2ccccc2-c2ccccc2C(=O)O)CCC3)c1 [Compound A14]	–	58	177 to 179
Cc1ccc(-c2noc(-c3ccccc3-c3ccccc3C(=O)O)n2)cc1 [Compound B6]	–	45	151 to 153
O=C(O)c1ccccc1-c1ccccc1-c1nc(-c2ccncc2Cl)no1 [Compound B21]	170	98	–
COc1ccc(-c2noc(-c3ccccc3-c3ccccc3C(=O)O)n2)cc1 [Compound B5]	–	68	154 to 157
O=C(O)c1ccccc1-c1ccccc1C(=O)N1CCCCc2ccccc21 [Compound A5]	–	72	215 to 217
CN(C(=O)c1ccccc1-c1ccccc1C(=O)O)c1ccccc1 [Compound A16]	–	13	169 to 172
O=C(O)c1ccccc1-c1ccccc1-c1nc(-c2ccnc(Cl)c2)no1 [Compound B16]	270	97	145 to 147
COc1cc(-c2noc(-c3ccccc3-c3ccccc3C(=O)O)n2)ccn1 [Compound B19]	420	96	154 to 156
O=C(O)c1ccccc1-c1ccccc1C(=O)Nc1ccncc1 [Compound A18]	–	11	190 to 191
O=C(O)c1ccccc1-c1ccccc1C(=O)N1CCCc2ccccc21 [Compound A1]	930	89	–
